# Measurements from US12012415B2, “Compositions and methods for the diagnosis, treatment and prevention of neoplastic and neurological disorders” (AscentGene, Inc., priority 2018, dated 2024).
# Tests used:
# [1] = test system: Aβ1-42-induced cognitive impairments; test: Novel-object recognition (NOR) test in Aβ1-42 AD rat model; format: in vivo, rats
# Experimental: Aβ1-42 (Sigma-Aldrich, St. Louis, MO, USA;) was dissolved in double-distilled water at the concentration of 5 μg/μl, and incubated at 37° C. for one week before surgery. The rats were randomly divided into four groups as Sham (n=8), Sham+AG-1601 (n=8), Aβ1-42 (n=8) and Aβ1-42+AG-1601 (n=8). The Alzheimer's disease rat models were established by intracerebroventricular (i.c.v.) injection of Aβ1-42 aggregates. The animals were anesthetized with intraperitoneal injection of pentobarbital sodium (50 mg/kg) and placed in a stereotaxic apparatus (Narishige, Japan). The head skin of the rat was opened and two small holes were drilled on both sides of skull following the coordinates: 0.8 mm posterior to bregma, +1.4 mm lateral to sagittal suture, 4.0 mm beneath the surface of brain. Aβ1-42 (2.0 μl per side) was injected bilaterally into the lateral ventricles through micro-syringe. The needle was taken out after 5 minutes of the injection to ensure the aggregates were infused completely. […] The short- and long-term memory functions of the animals were evaluated by using the NOR test, which were carried out after the open field test. […] A recognition index was calculated by the percentage of TB/(TA+TB) (TA: time spent exploring the familiar object A; TB: time spent exploring the novel object B). […]
# [2] = test system: Glioma cells; test: Cell viability assay in glioma cells versus TMZ and Carmustine; format: cell-based, human; conditions: 48 hours treatment
# Experimental: Human glioma cell lines of U251, SF539, SF295 were obtained from NCI/DTP and U87 was obtained from ATCC. U251, SF539, and SF295 cells were grown in RPMI (Gibco) medium; U87 cells were grown in EMEM medium (ATCC), all the cells culture media containing 10% FBS and 100 unit/ml of Penicillin-Streptomycin, and cells were incubated in a 37 °C/5% CO2 humidified hood. One day before chemical compounds treatment, four kinds of cells U251, SF539, SF295, and U87 were seeded in 96-well plates at 10,000 cells/well (100 μl) with triplicate. The culture medium was removed and cells were treated with a series different concentration of AG1601/in correspond fresh media. Following an additional incubation of 48 hours at 37° C./5% CO2, cells proliferation assay was performed with Cell Counting Kit-8 (Dojindo Laboratories, #CK04), added 10 μl of reagent to the cells in each well after replacing with 100 μl of fresh media, mix well, following an additional 2 to 3 hours incubation at 37° C./5% CO2, read wavelengths of OD450 nm in a 96-well plate reader (Victor 2, 1420 Multilabel counter), data analysis were performed with Excel and it is platted as relative mean OD450 nm+/−standard error of the mean.
# Cells were treated with indicated content of AG-1601 for 48 hours, then followed by performance of cell viability assays. […]
# [3] = test system: C6 glioma; test: C6 intracranial glioma rat model; format: in vivo, rats
# Experimental: SD male rate were intracranially injected with DMEM medium in 10 μl (sham and small plus AG-1601), and C6 cell at 1×10^6 in 10 μl (glioma and glioma plus AG-1601). C6 cells, a type of murine glioma cell lines, were injected into the right striatum in rats to induce glioma formation. C6 cells were cultured in DMEM containing 10% FBS. C6 cells were suspended in DMEM to implant in rats. Rats injected DMEM containing 10% FBS were grouped as Sham. Tumor formation continued for 7 days, followed by AG1601 was intravenous injected once a day for 6 days. Physical findings included: body weight/2d; effects on synaptic plasticity; electrophysiological tests of LTP and CA3-CA1; mechanism of the study (BDNF/TrkB signaling pathway); Western blot; Synaptic plasticity: BDNF/TrkB/PI3K/Akt/NMDA/PSD95/SYP; Tumor suppression: BDNF/TrkB/RAS/ERK/Bcl-2/Bax; Histology and immunohistochemical analysis; HE staining and immunohistochemistry staining; characterization of brain tumor (localization, size, and regions).
structure (smiles),measurement,setting,value
"C=CC1=C(C)c2cc3[nH]c(cc4nc(cc5[nH]c(cc1n2)c(C)c5C=C)C(C)=C4CCC(=O)O)c(CCC(=O)NCCCc1ccccc1)c3C [AG-1601, 3-(2,8,13,18-tetramethyl-3-(3-oxo-3-((3-phenylpropyl)amino)propyl)-12,17-divinylporphyrin-7-yl)propanoic acid]","recognition index, short-term memory test","[1]; 1 h after training, vs Aβ1-42 group",significant increase in recognition index
same,cognitive impairments in NOR test,[1]; Aβ42 induced AD rat model,significantly reversed cognitive impairments
same,efficacy on glioma cells compared with TMZ and Carmustine,[2],better efficacy on Glioma cells in vitro than TMZ and Carmustine
same,body weights,"[3]; Glioma vs Glioma+AG1601, 2 weeks",significant difference was found between them
same,tumor volumes,[3]; Glioma+AG1601 vs Glioma group,reduced
same,tumor weights,[3]; Glioma+AG1601 vs Glioma group,reduced
same,body weights,"[3]; Sham vs Sham+AG1601, 2 weeks",without significant difference
same,survival time,[3]; glioma rats treated vs without treatment,longer
same,glioma growth,[3]; i.v. once a day for 6 days,could suppress glioma growth
same,efficacy on C6 xenograft tumor,[3]; rat model,shows efficacy
